# Read-outs that look alike come from different tables or passages of the source.
# What was measured:
# [1] = biological target: T1, interaction between GMPPNP-bound recombinant K-Ras4B G12C mutant protein and cRAF RAS-binding domain (cRAF-RBD) (Homo sapiens, UniProt P01116, G12C); test: Inhibitory activity on interaction between KRAS G12C and cRAF (Alpha technology); details: Table 2-1
# T1 construct: His-tag (N)
# Summary of the method: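 Alpha signal measured 1.5 h after adding cRAF-RBD (aa 50-132) and detection reagents to GMPPNP-bound KRAS G12C (aa 1-169) pretreated 1 h at 25° C with compound (pH 7.5 buffer). 0% inhibition = DMSO, 100% = GDP-loaded KRAS; IC50 by curve fit.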
# [2] = test system: MIA PaCa-2 cells; test: Growth inhibition activity on KRAS-G12C mutant cell line (CellTiter-Glo 3D); format: cell-based, human; details: Homo sapiens, MIA PaCa-2, 72 h, MIA PaCa-2, 3-day culture with compound; Table 3-1
# Summary of the method: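 IC50 (nM) derived from inhibition of luminescence (CellTiter-Glo 3D) relative to compound-free wells. Cells were seeded in U-bottom plates, grown 1 day, then exposed to compound for 3 days at 37 °C with 0.2% final DMSO.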
# [3] = IC50, GMPPNP-bound KRAS G12C incubated with compound 25° C. 1 hour
# [4] = GMPPNP-bound KRAS G12C incubated with compound 25° C. 1 hour, read-out: IC50
# T1 sequence (P01116 with tags, fused parts or gaps isoform P01116-2 G12C): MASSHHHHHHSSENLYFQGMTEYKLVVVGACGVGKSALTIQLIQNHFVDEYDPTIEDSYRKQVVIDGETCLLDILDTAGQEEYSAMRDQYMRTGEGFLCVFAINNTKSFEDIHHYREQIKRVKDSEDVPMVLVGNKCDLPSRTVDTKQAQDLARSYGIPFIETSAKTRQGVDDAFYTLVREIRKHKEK
SMILES,"IC50 [1, 3]",IC50 [2],"IC50 [1, 4]"
Cc1cc2c(nc(C)n2C)c2c1-c1cccc3c(C(=O)c4cc(F)c(NC(=O)/C=C/CN[C@H]5C[C@H]6CC[C@@H]5O6)c(F)c4)cn(c13)CCN2C [Example 136],26.4 nM,36.1 nM,–
Cc1nc2c3c(c(C(F)(F)F)cc2n1C)-c1cccn2c(C(=O)c4cc(F)c(NC(=O)/C=C/CN[C@@H]5COC[C@H]5O)c(F)c4)cc(c12)CCN3C [Example 137],–,14.9 nM,33.5 nM
"CN1CCc2cc(C(=O)c3cc(F)c(NC(=O)C=CCNC4COCC4O)c(F)c3)n3cccc(c23)-c2c(C(F)(F)F)cc3c(ncn3C)c21 [Example 138, (E)-N-(4-(9,12-dimethyl-7-(trifluoromethyl)-9,12,13,14-tetrahydro-imidazo[4″,5″:5′,6′]benzo-[1′,2′:2,3]azocino[4,5,6-hi]indolizine-2-carbonyl)-2,6-difluorophenyl)-4-(((3R,4S)-4-hydroxytetra-hydrofuran-3-yl)amino)-but-2-enamide]",–,30.8 nM,47.2 nM
"Cc1cc2c(nc(C)n2C)c2c1-c1cccc3c(C(=O)c4cc(F)c(NC(=O)/C=C/CN5CC[C@H]5C(C)(C)O)c(F)c4)cn(c13)CCN2C [Example 139, (S,E)-N-(2,6-difluoro-4-(6,8,9,11-tetramethyl-8,11,12,13-tetrahydro-imidazo[4″,5″:5′,6′]benzo-[1′,2′:5,6][1,4]diazocino-[7,8,1-hi]indole-2-carbon-yl)phenyl)-4-(2-(2-hydroxypropan-2-yl)-azetidin-1-yl)but-2-en-amide]",59 nM,57.9 nM,–
"Cc1cc2c(nc(C)n2C)c2c1-c1cccc3c(C(=O)c4cc(F)c(NC(=O)/C=C/CN[C@H]5[C@@H]6COC[C@@H]65)c(F)c4)cn(c13)CCN2C [Example 143, (E)-4-(((1R,5S,6r)-3-oxa-bicyclo[3.1.0]hexan-6-yl)amino)-N-(2,6-difluoro-4-(6,8,9,11-tetramethyl-8,11,12,13-tetrahydro-imidazo[4″,5″:5′,6′]benzo-[1′,2′:5,6][1,4]diazocino-[7,8,1-hi]indole-2-carbon-yl)phenyl)but-2-enamide]",17.8 nM,47.7 nM,–
"Cc1c2cc(C(F)(F)F)c3c(c2nn1C)N(C)CCc1cc(C(=O)c2cc(F)c(NC(=O)/C=C/CNC4(C)COC4)c(F)c2)n2cccc-3c12 [Example 146, (E)-N-(2,6-difluoro-4-(9,10,12-trimethyl-7-(trifluoromethyl)-10,12,13,14-tetrahydroindolizino[8′,1′:4,5,6]azocino[3,2-g]indazole-2-carbonyl)phenyl)-4-((3-methyloxetan-3-yl)amino)but-2-enamide]",–,19.6 nM,20.4 nM
"Cn1cnc2c3c(c(C(F)(F)F)cc21)-c1cccn2c(C(=O)c4cc(F)c(NC(=O)/C=C/CN[C@H]5[C@@H]6COC[C@@H]65)c(F)c4)cc(c12)CCO3 [Example 147, (E)-4-(((1R,5S,6r)-3-oxa-bicyclo[3.1.0]hexan-6-yl)amino)-N-(2,6-difluoro-4-(9-methyl-7-(trifluoro-methyl)-13,14-dihydro-9H-imidazo[4″,5″:5′,6′]-benzo[1′,2′:2,3]oxocino-[4,5,6-hi]indolizine-2-carbonyl)phenyl)but-2-enamide]",–,15.3 nM,7.49 nM
"Cc1nc2c3c(c(C(F)(F)F)cc2n1C)-c1cccn2c(C(=O)c4cc(F)c(NC(=O)C=CCNC5CCOC5)c(F)c4)nc(c12)CCN3C [Example 148, (S,E)-N-(2,6-difluoro-4-(8,9,11-trimethyl-6-(trifluoromethyl)-8,11,12,13-tetrahydro-1,2a,8,10,11-pentaazacycloocta[1,2,3-cd:5,4-e′]diindene-2-carbonyl)phenyl)-4-((tetrahydrofuran-3-yl)amino)but-2-enamide]",–,19.1 nM,23.2 nM
"Cn1cnc2c3c(c(C(F)(F)F)cc21)-c1cccn2c(C(=O)c4cc(F)c(NC(=O)/C=C/CN5CCCC5)c(F)c4)cc(c12)CCO3 [Example 149, (E)-N-(2,6-difluoro-4-(9-methyl-7-(trifluorometh-yl)-13,14-dihydro-9H-imidazo[4″,5″:5′,6′]benzo-[1′,2′:2,3]oxocino[4,5,6-hi]indolizine-2-carbonyl)-phenyl)-4-(pyrrolidin-1-yl)but-2-enamide]",–,23.4 nM,23.7 nM
"Cn1cnc2c3c(c(C(F)(F)F)cc21)-c1cccn2c(C(=O)c4cc(F)c(NC(=O)/C=C/CN5CC[C@H](O)C5)c(F)c4)cc(c12)CCO3 [Example 150, (S,E)-N-(2,6-difluoro-4-(9-methyl-7-(trifluoro-methyl)-13,14-dihydro-9H-imidazo[4″,5″:5′,6′]-benzo[1′,2′:2,3]oxocino-[4,5,6-hi]indolizine-2-carbonyl)phenyl)-4-(3-hydroxypyrrolidin-1-yl)-but-2-enamide]",–,31.2 nM,17.1 nM
"Cn1cnc2c3c(c(C(F)(F)F)cc21)-c1cccn2c(C(=O)c4cc(F)c(NC(=O)/C=C/CN5CC[C@@H](O)C5)c(F)c4)cc(c12)CCO3 [Example 151, (R,E)-N-(2,6-difluoro-4-(9-methyl-7-(trifluoro-methyl)-13,14-dihydro-9H-imidazo[4″,5″:5′,6′]-benzo[1′,2′:2,3]oxocino-[4,5,6-hi]indolizine-2-carbonyl)phenyl)-4-(3-hydroxypyrrolidin-1-yl)-but-2-enamide]",–,33.9 nM,15.5 nM
"Cn1cnc2c3c(c(C(F)(F)F)cc21)-c1cccn2c(C(=O)c4cc(F)c(NC(=O)/C=C/CN[C@@H]5[C@@H]6COC[C@@H]65)c(F)c4)cc(c12)CCO3 [Example 156, (E)-4-(((1R,5S,6s)-3-oxabicyclo[3.1.0]hexan-6-yl)amino)-N-(2,6-difluoro-4-(9-methyl-7-(trifluoromethyl)-13,14-dihydro-9H-imidazo-[4″,5″:5′,6′]benzo[1′,2′: 2,3]oxocino[4,5,6-hi]-indolizine-2-carbonyl)-phenyl)but-2-enamide]",–,10.3 nM,8.06 nM
"CN1CCc2nc(C(=O)c3cc(F)c(NC(=O)C=CCNC4(C)COC4)c(F)c3)n3cccc(c23)-c2c(C(F)(F)F)cc3c(ncn3C)c21 [Example 157, (E)-N-(4-(8,11-dimethyl-6-(trifluoromethyl)-8,11,12,13-tetrahydro-1,2a,8,10,11-pentaaza-cycloocta[1,2,3-cd:5,4-e′]-diindene-2-carbonyl)-2,6-difluorophenyl)-4-((3-methyloxetan-3-yl)-amino)but-2-enamide]",–,62.1 nM,67.6 nM
"COCc1nc2c3c(c(C(F)(F)F)cc2n1C)-c1cccn2c(C(=O)c4cc(F)c(NC(=O)/C=C/CN[C@H]5CCOC5)c(F)c4)cc(c12)C(=O)N(C)C3 [Example 158, (S,E)-N-(2,6-difluoro-4-(10-(methoxymethyl)-9,13-dimethyl-14-oxo-7-(trifluoromethyl)-9,12,13,14-tetrahydroimidazo[4″,5″:3′,4′]benzo[1′,2′:6,7]azocino[5,4,3-hi]indolizine-2-carbonyl)phenyl)-4-((tetrahydrofuran-3-yl)amino)but-2-enamide]",–,95.4 nM,77.6 nM
"Cn1cnc2c3c(c(C(F)(F)F)cc21)-c1cccn2c(C(=O)c4cc(F)c(NC(=O)/C=C/CN5CCC5)c(F)c4)cc(c12)CCO3 [Example 161, (E)-4-(azetidin-1-yl)-N-(2,6-difluoro-4-(9-methyl-7-(trifluoromethyl)-13,14-dihydro-9H-imidazo-[4″,5″:5′,6′]benzo[1′,2′: 2,3]oxocino[4,5,6-hi]-indolizine-2-carbonyl)-phenyl)but-2-enamide]",–,21.6 nM,63.2 nM
